According to ChEMBL document CHEMBL3868607, “Development of a novel series of non-natural triaryl agonists and antagonists of the Pseudomonas aeruginosa LasR quorum sensing receptor” (Bioorg Med Chem, 2017):
pEC50, pIC50: −log10 of the molar value. Calls of active or inactive are those of the source. No cut-off for these calls is given here.

Key:
[1] = test system: Pseudomonas aeruginosa; assay: Agonist activity at Pseudomonas aeruginosa GFP-fused LasR expressed in Escherichia coli BL21(DE3) at 50 uM after 4 to 6 hrs by fluorescence assay relative to 3-oxo-C12 HSL
[2] = Agonist activity at Pseudomonas aeruginosa GFP-fused LasR expressed in Escherichia coli BL21(DE3) after 4 to 6 hrs by fluorescence assay
[3] = test system: Pseudomonas aeruginosa; assay: Antagonist activity at Pseudomonas aeruginosa GFP-fused LasR expressed in Escherichia coli BL21(DE3) at 50 uM after 4 to 6 hrs by fluorescence assay relative to (S)-2-(4-bromophenyl)-N-(2-oxotetrahydrofuran-3-yl) acetamide
[4] = Antagonist activity at Pseudomonas aeruginosa GFP-fused LasR expressed in Escherichia coli BL21(DE3) after 4 to 6 hrs by fluorescence assay
[5] = test system: Pseudomonas aeruginosa; assay: Irreversible inhibition of Pseudomonas aeruginosa GFP-fused LasR expressed in Escherichia coli BL21(DE3) at 50 uM after 4 to 6 hrs by fluorescence assay
[6] = Antagonist activity at Pseudomonas aeruginosa LasR expressed in Escherichia coli DH5alpha after 4 to 6 hrs by beta-galactosidase reporter gene assay

O=C(Cc1cc(Br)cc(Br)c1OC(=O)c1ccc(F)cc1)Nc1ccccc1[N+](=O)[O-]
Emax [1]: 39%
pEC50 [2]: > 4.30

O=C(Cc1cc(Br)cc(Br)c1OC(=O)c1ccccc1Cl)Nc1cccc([N+](=O)[O-])c1
Emax [1]: 0%
pEC50 [2]: > 4.30

O=C(CCCN1C(=O)C=CC1=O)Oc1c(Br)cc(Br)cc1CNC(=O)c1ccccn1
Imax [3]: 116%
pIC50 [4]: 4.11
inhibition [5]: Active

O=C(Oc1c(Br)cc(Br)cc1CNC(=O)c1cccc(F)c1F)c1ccccc1Cl
Imax [3]: 80%
pIC50 [4]: 4.19
Emax [1]: 0%
pEC50 [2]: < 4.30

O=C(NCc1cc(Br)cc(Br)c1OC(=O)c1ccccc1Cl)c1ccncn1
Imax [3]: 0%
pIC50 [4]: < 4.00
Emax [1]: 90%
pEC50 [2]: 5.79

O=C(Cc1cc(Br)cc(Br)c1OC(=O)c1ccccc1Cl)Nc1cccc(F)c1F
Imax [3]: 0%
pIC50 [4]: < 4.00
Emax [1]: 116%
pEC50 [2]: 7.34

O=C(Cc1cc(Br)cc(Br)c1OC(=O)CCN1C(=O)C=CC1=O)N[C@H]1CCOC1=O
Imax [3]: 115%
pIC50 [4]: 4.62
inhibition [5]: Active

O=C(Cc1cc(Br)cc(Br)c1OC(=O)c1ccccc1Cl)N[C@H]1CCOC1=O
Emax [1]: 105%
pEC50 [2]: 9.05

O=C(Cc1cc(Br)cc(Br)c1OC(=O)c1ccccc1I)Nc1ccccc1[N+](=O)[O-]
Emax [1]: 50%
pEC50 [2]: 5.80

O=C(Cc1cc(Br)cc(Br)c1OC(=O)c1ccccc1[N+](=O)[O-])Nc1ccccc1[N+](=O)[O-]
Emax [1]: 37%
pEC50 [2]: 6.31

O=C(Cc1cc(Br)cc(Br)c1OC(=O)CCCN1C(=O)C=CC1=O)N[C@H]1CCOC1=O
Imax [3]: 109%
pIC50 [4]: < 4.00
inhibition [5]: Active

CCCCCCCCCC(=O)CC(=O)N[C@H]1CCOC1=O
pEC50 [2]: 4.14 to 4.19

Cc1ccc(C(=O)Oc2c(Br)cc(Br)cc2CC(=O)Nc2ccccc2[N+](=O)[O-])cc1
Emax [1]: 33%
pEC50 [2]: > 4.30

O=C(Cc1cc(Br)cc(Br)c1OCc1c(Cl)cccc1Cl)Nc1ccccc1[N+](=O)[O-]
Emax [1]: 56%
pEC50 [2]: 6.79

Cc1cccc(C(=O)Oc2c(Br)cc(Br)cc2CC(=O)Nc2ccccc2[N+](=O)[O-])c1
Emax [1]: 24%
pEC50 [2]: > 4.30

O=C(Cc1cc(Br)cc(Br)c1OC(=O)c1cccc(Cl)c1)Nc1ccccc1[N+](=O)[O-]
Emax [1]: 0%
pEC50 [2]: > 4.30

O=C(Cc1cc(Br)cc(Br)c1OC(=O)c1ccccc1)Nc1ccccc1[N+](=O)[O-]
Emax [1]: 0%
pEC50 [2]: > 4.30

O=C(Cc1ccc(Br)cc1)N[C@H]1CCOC1=O
pIC50 [6]: 4.58

O=C(Cc1cc(Br)cc(Br)c1OC(=O)c1ccc(F)cc1Br)Nc1ccccc1[N+](=O)[O-]
Emax [1]: 64%
pEC50 [2]: 6.36

O=C(Cc1cc(Br)cc(Br)c1OC(=O)c1ccc(Br)cc1)Nc1ccccc1[N+](=O)[O-]
Emax [1]: 35%
pEC50 [2]: > 4.30

O=C(Cc1cc(Br)cc(Br)c1OC(=O)c1ccccc1Cl)Nc1ccc([N+](=O)[O-])cc1
Emax [1]: 0%
pEC50 [2]: > 4.30

O=C(Cc1cc(Br)cc(Br)c1OC(=O)c1ccccc1F)Nc1ccccc1[N+](=O)[O-]
Emax [1]: 76%
pEC50 [2]: 5.89

O=C(Cc1cc(Br)cc(Br)c1OC(=O)c1ccccc1Cl)Nc1cc(F)c(F)cc1[N+](=O)[O-]
Emax [1]: 89%
pEC50 [2]: 6.47

O=C(Cc1cc(Br)cc(Br)c1OC(=O)c1ccccc1Cl)Nc1ccccn1
Imax [3]: 122%
pIC50 [4]: 4.38
Emax [1]: 0%
pEC50 [2]: > 4.30

O=C(Cc1cc(Br)cc(Br)c1OC(=O)c1c(Cl)cccc1Cl)Nc1ccccc1[N+](=O)[O-]
Emax [1]: 95%
pEC50 [2]: 6.50

O=C(Cc1cc(Br)cc(Br)c1OC(=O)c1ccccc1Cl)Nc1ccccc1[N+](=O)[O-]
Emax [1]: 105%
pEC50 [2]: 6.43

Cc1ccccc1C(=O)Oc1c(Br)cc(Br)cc1CC(=O)Nc1ccccc1[N+](=O)[O-]
Emax [1]: 85%
pEC50 [2]: 6.12

O=C(Cc1cc(Br)cc(Br)c1OC(=O)c1ccc(Cl)cc1)Nc1ccccc1[N+](=O)[O-]
Emax [1]: 0%
pEC50 [2]: > 4.30

O=C(NCc1cc(Br)cc(Br)c1OC(=O)c1ccccc1Cl)c1ccccn1
Imax [3]: 105%
pIC50 [4]: 4.10
Emax [1]: 0%
pEC50 [2]: < 4.30

O=C(Cc1cc(Br)cc(Br)c1OC(=O)c1ccccc1Cl)Nc1ccncc1[N+](=O)[O-]
Emax [1]: 112%
pEC50 [2]: 6.35

O=C(Cc1cc(Br)cc(Br)c1OC(=O)c1ccccc1Cl)Nc1ccncn1
Imax [3]: 0%
pIC50 [4]: < 4.00
Emax [1]: 92%
pEC50 [2]: 6.22

COc1ccccc1C(=O)Oc1c(Br)cc(Br)cc1CC(=O)Nc1ccccc1[N+](=O)[O-]
Emax [1]: 45%
pEC50 [2]: 6.61

O=C(NCc1cc(Br)cc(Br)c1OC(=O)c1ccccc1Cl)c1cccnc1
Imax [3]: 0%
pIC50 [4]: < 4.00
Emax [1]: 31%
pEC50 [2]: 9.31

O=C(Cc1cc(Br)cc(Br)c1OC(=O)c1cccc(Br)c1)Nc1ccccc1[N+](=O)[O-]
Emax [1]: 44%
pEC50 [2]: > 4.30

O=C(Cc1cc(Br)cc(Br)c1OC(=O)c1ccccc1Br)Nc1ccccc1[N+](=O)[O-]
Emax [1]: 82%
pEC50 [2]: 6.57
